Results from paper PMC9032457, “Binding Interaction of Betulinic Acid to α-Glucosidase and Its Alleviation on Postprandial Hyperglycemia” (Molecules, 2022).
Where two headings read alike, the source gives them in different places.

Key:
[1] = system: postprandial blood glucose level; assay: Oral disaccharide tolerance test (ODTT); format: in vivo, BALB/c mice; details: normal mice, oral BA 20 mg/kg or acarbose 7 mg/kg; for postprandial blood glucose levels vs control: after mixed maltose-sucrose, p < 0.01; for blood glucose level at 30 min: mixed maltose-sucrose 2 g/kg, control 12.58 ± 0.47
Protocol: (§1) The dynamic characteristics of postprandial blood glucose level were evaluated by ODTT and OGTT, which were performed as described previously. BALB/c mice (5 weeks old, male) were purchased from Guangdong Medical Laboratory Animal Center (Guangzhou, China). The animal study was approved by the Committee on the Ethics of Animal Experiments of the Institute of Microbiology, Guangdong Academy of Science (GT-IACUC202012102). After one week of acclimation, the mice were randomly divided into a control group, BA-treated group and acarbose-treated group (n = 8), respectively. […] After 30 min, all the mice were intragastrically administered with the mixed maltose-sucrose solution (2 g/kg). In total, 10 μL of blood was collected by tail cut and glucose levels at 0, 30, 60, 90 and 120 min was measured by glucometer (Roche ACCU-CHEK Performa Nano), respectively. Two days later, all the mice were give the oral glucose tolerance test (OGTT), which was performed as the ODTT modus. The oral dose of glucose was also 2 g/kg.

[2] = system: postprandial blood glucose level; assay: Oral glucose tolerance test (OGTT); format: in vivo, BALB/c mice; details: normal mice, oral BA 20 mg/kg or acarbose 7 mg/kg; glucose 2 g/kg
Protocol: as §1

[3] = target: T1, α-glucosidase (Saccharomyces cerevisiae, UniProt P53341); assay: Combination of acarbose with BA on α-glucosidase activity; format: biochemical, yeast; parameters: key to Vab (observed residual activity) / Vc (expected residual activity): fraction of remaining α-glucosidase activity (0–1)
T1 construct: purchased Sigma-Aldrich
T1 sequence (P53341 whole entry): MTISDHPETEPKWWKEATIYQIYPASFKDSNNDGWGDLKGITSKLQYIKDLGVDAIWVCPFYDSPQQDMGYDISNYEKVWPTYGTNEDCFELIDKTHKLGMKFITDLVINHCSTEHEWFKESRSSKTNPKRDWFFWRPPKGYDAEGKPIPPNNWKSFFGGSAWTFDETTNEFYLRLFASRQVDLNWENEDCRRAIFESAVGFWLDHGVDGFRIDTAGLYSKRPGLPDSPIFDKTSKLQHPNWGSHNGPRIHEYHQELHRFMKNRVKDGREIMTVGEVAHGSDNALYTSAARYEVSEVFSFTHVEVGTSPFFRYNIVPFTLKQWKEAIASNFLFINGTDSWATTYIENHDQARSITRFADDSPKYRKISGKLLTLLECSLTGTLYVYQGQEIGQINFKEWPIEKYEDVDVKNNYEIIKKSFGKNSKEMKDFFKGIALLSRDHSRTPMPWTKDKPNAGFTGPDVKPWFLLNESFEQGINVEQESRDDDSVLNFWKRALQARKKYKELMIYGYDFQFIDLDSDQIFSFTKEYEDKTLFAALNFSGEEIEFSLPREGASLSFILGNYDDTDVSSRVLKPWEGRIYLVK
Protocol: The method was the same as the α-glucosidase activity assay. […] The value for BA (Vb) was also defined. If the inhibitory effects on α-glucosidase of the two compounds are independent, the final remnant activity fraction of α-glucosidase (Vc) is equal to VaVb when the reaction is sequentially treated by those two compounds. […] The types of interaction were determined by the relationship between Vab and Va, Vb, or Vc.

[4] = target: T1, α-glucosidase; assay: Enzyme inhibition kinetics (Lineweaver-Burk plot); format: biochemical
Protocol: α-Glucosidase inhibition kinetics was studied as previously reported. BA was set with the concentrations of 0, 12 and 24 μM for 0.2 U/mL α-glucosidase. A series of concentrations of pNPG were used as substrates. The inhibition type was determined by using the Lineweaver–Burk plots and its secondary equations. The kinetic parameters (Vmax and Ki) were evaluated by the nonlinear regression of the Michaelis–Menton equation with GraphPad Prism 7.0. (https://www.graphpad.com/support/prism-7-updates/, accessed on 12 May 2021).

[5] = target: T1, α-glucosidase; assay: SPR assay (Biacore T200); format: binding; details: 1:1 Langmuir model, enzyme immobilized on CM5 chip, read-out: equilibrium dissociation constant (KD)
Protocol: SPR analysis was applied on a Biacore T200 system (GE Healthcare, Uppsala, Sweden). α-Glucosidase solution (50 μg/mL) was prepared and stayed at room temperature for 30 min. Then, the activated α-glucosidase was immobilized on a CM5 sensor chip pre-activated by EDC/NHS with an amine coupling kit at a flow rate of 10 μL/min. BA solution of different concentrations containing 5% DMSO was serially injected over α-glucosidase coated surface. PBS was used as the mobile phase with a flow rate of 30 μL/min. According to the 1:1 Langmuir model, the equilibrium dissociation constant (KD) was calculated by the Biacore evaluation software. (https://www.cytivalifesciences.com/en/us/shop/protein-analysis/spr-label-free-analysis/software/biacore-insight-evaluation-software-p-23528, accessed on 26 October 2016).

[6] = target: T1, α-glucosidase; assay: α-Glucosidase inhibition assay (pNPG substrate); format: biochemical
Protocol: α-Glucosidase inhibition was assayed according to the methods described previously. Briefly, 40 μL phosphate buffer (0.1 M, pH = 6.8), 10 μL BA solutions and 50 μL α-glucosidase solution (0.4 U/mL) were added into 96-well plates and mixed thoroughly. After being incubated at 37 °C for 10 min, 50 μL pNPG solution (2.5 mM) was added to initiate the reaction and stayed at 37 °C for 30 min. Then, 40 μL Na2CO3 solution (1.0 M) was added to terminate the reaction. A microplate reader was employed to read the absorbance at 405 nm. The inhibition rates (%) = [(ODcontrol − ODcontrol blank) − (OD test − ODtest blank)]/(ODcontrol − ODcontrol blank) × 100%.

[7] = target: T1, α-glucosidase; parameters: method as in PMID 29902001, doi:10.1016/j.indcrop.2015.08.031, PMID 33876656; details: in vitro; read-out: IC50 against α-glucosidase, previous research; cited from earlier work
[8] = target: T1, α-glucosidase; parameters: method as in PMID 29030193; details: literature; cited from earlier work

SMILES: C=C(C)[C@@H]1CC[C@]2(C(=O)O)CC[C@]3(C)[C@H](CC[C@@H]4[C@@]5(C)CC[C@H](O)C(C)(C)[C@@H]5CC[C@]43C)[C@@H]12 [BA, betulinic acid]
- postprandial blood glucose levels vs control [1]: significantly suppressed
- blood glucose level at 30 min [1]: 10.46 ± 0.31 mM
- effect on blood glucose level after oral glucose [2]: no significant effect
- Interaction ([3]; BA 5 μM + acarbose 600 μM): SY (Vab − Vc < −0.1 is considered as the synergistic (SY) interaction between BA and acarbose)
- Vab (observed residual activity) ([3]; BA 5 μM + acarbose 600 μM): 0.47
- Vab − Vc ([3]; BA 5 μM + acarbose 600 μM): −0.12
- Vc (expected residual activity) ([3]; BA 5 μM + acarbose 600 μM): 0.59
- Interaction ([3]; BA 5 μM + acarbose 800 μM): SY (Vab − Vc < −0.1 is considered as the synergistic (SY) interaction between BA and acarbose)
- Vab (observed residual activity) ([3]; BA 5 μM + acarbose 800 μM): 0.42
- Vab − Vc ([3]; BA 5 μM + acarbose 800 μM): −0.15
- Vc (expected residual activity) ([3]; BA 5 μM + acarbose 800 μM): 0.56
- Interaction ([3]; BA 5 μM + acarbose 1000 μM): SY (Vab − Vc < −0.1 is considered as the synergistic (SY) interaction between BA and acarbose)
- Vab (observed residual activity) ([3]; BA 5 μM + acarbose 1000 μM): 0.41
- Vab − Vc ([3]; BA 5 μM + acarbose 1000 μM): −0.13
- Vc (expected residual activity) ([3]; BA 5 μM + acarbose 1000 μM): 0.53
- Interaction ([3]; BA 10 μM + acarbose 600 μM): SY (Vab − Vc < −0.1 is considered as the synergistic (SY) interaction between BA and acarbose)
- Vab (observed residual activity) ([3]; BA 10 μM + acarbose 600 μM): 0.39
- Vab − Vc ([3]; BA 10 μM + acarbose 600 μM): −0.18
- Vc (expected residual activity) ([3]; BA 10 μM + acarbose 600 μM): 0.57
- Interaction ([3]; BA 10 μM + acarbose 800 μM): SY (Vab − Vc < −0.1 is considered as the synergistic (SY) interaction between BA and acarbose)
- Vab (observed residual activity) ([3]; BA 10 μM + acarbose 800 μM): 0.36
- Vab − Vc ([3]; BA 10 μM + acarbose 800 μM): −0.18
- Vc (expected residual activity) ([3]; BA 10 μM + acarbose 800 μM): 0.54
- Interaction ([3]; BA 10 μM + acarbose 1000 μM): SY (Vab − Vc < −0.1 is considered as the synergistic (SY) interaction between BA and acarbose)
- Vab (observed residual activity) ([3]; BA 10 μM + acarbose 1000 μM): 0.34
- Vab − Vc ([3]; BA 10 μM + acarbose 1000 μM): −0.17
- Vc (expected residual activity) ([3]; BA 10 μM + acarbose 1000 μM): 0.51
- Interaction ([3]; BA 15 μM + acarbose 600 μM): SY (Vab − Vc < −0.1 is considered as the synergistic (SY) interaction between BA and acarbose)
- Vab (observed residual activity) ([3]; BA 15 μM + acarbose 600 μM): 0.32
- Vab − Vc ([3]; BA 15 μM + acarbose 600 μM): −0.18
- Vc (expected residual activity) ([3]; BA 15 μM + acarbose 600 μM): 0.50
- Interaction ([3]; BA 15 μM + acarbose 800 μM): SY (Vab − Vc < −0.1 is considered as the synergistic (SY) interaction between BA and acarbose)
- Vab (observed residual activity) ([3]; BA 15 μM + acarbose 800 μM): 0.29
- Vab − Vc ([3]; BA 15 μM + acarbose 800 μM): −0.18
- Vc (expected residual activity) ([3]; BA 15 μM + acarbose 800 μM): 0.48
- Interaction ([3]; BA 15 μM + acarbose 1000 μM): SY (Vab − Vc < −0.1 is considered as the synergistic (SY) interaction between BA and acarbose)
- Vab (observed residual activity) ([3]; BA 15 μM + acarbose 1000 μM): 0.28
- Vab − Vc ([3]; BA 15 μM + acarbose 1000 μM): −0.16
- Vc (expected residual activity) ([3]; BA 15 μM + acarbose 1000 μM): 0.45
- inhibition type ([4]; Lineweaver-Burk plot, BA 0, 12 and 24 μM, 0.2 U/mL enzyme): non-competitive
- Ki ([4]; from secondary plot of slope vs. BA, read-out: inhibition kinetic constant (Ki)): 38.5 µM
- Kd [5]: 55.3 µM
- fold stronger than acarbose (IC50) ([6]; BA IC50 vs acarbose IC50): approximately 50 fold
- IC50 ([6]; pNPG 2.5 mM, pH 6.8, 37 °C, read-out: IC50 against α-glucosidase): 16.8 ± 1.16 µM
- IC50 [7]: 10.6 to 83.6 µM

SMILES: C[C@H]1O[C@H](O[C@H]2[C@H](O)[C@@H](O)[C@@H](O[C@H]3[C@H](O)[C@@H](O)C(O)O[C@@H]3CO)O[C@@H]2CO)[C@H](O)[C@@H](O)[C@@H]1N[C@H]1C=C(CO)[C@@H](O)[C@H](O)[C@H]1O (stereo partly drawn) [acarbose, reference compound]
- postprandial blood glucose levels vs control [1]: significantly suppressed
- blood glucose level at 30 min [1]: 10.76 ± 0.39 mM
- inhibition type [8]: competitive
- effect on blood glucose level after oral glucose [2]: no significant effect

SMILES: CC1(C)CC[C@]2(C(=O)O)CC[C@]3(C)C(=CC[C@@H]4[C@@]5(C)CC[C@H](O)C(C)(C)[C@@H]5CC[C@]43C)[C@@H]2C1 [oleanolic acid]
- inhibition type [8]: non-competitive

SMILES: C[C@H]1[C@H](C)CC[C@]2(C(=O)O)CC[C@]3(C)C(=CC[C@@H]4[C@@]5(C)CC[C@H](O)C(C)(C)[C@@H]5CC[C@]43C)[C@H]12 [ursolic acid]
- inhibition type [8]: non-competitive
